Data: PubChem BioAssay (NCI)
Values joined by “and” are separate entries in the source; they are usually repeats but may differ in a detail not shown here. Identical values can stand only once.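 Exposure lasted 48 hours, with cells grown in 96-well plates and compounds tested at five concentrations. At the GI50, growth is halved. TGI: total growth inhibition.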

Tested on: MDA-MB-468 breast
Test: NCI-60 cell line screen, 48 h

Compound	GI50	TGI
COc1ccc2nc3cc(Cl)ccc3c(Nc3cc(CN4CCCC4)c(O)c(CN4CCCC4)c3)c2n1	1330 nM	2760 nM
O=C(Nc1cccc(C(F)(F)F)c1)Oc1ccc(Cl)c2cccnc12	1790 nM	4280 nM
COc1cc2nccc(Oc3ccc(NC(=O)c4cn(C(C)C)c(=O)n(-c5ccc(F)cc5)c4=O)cc3F)c2cc1OC	> 100000 nM	> 100000 nM
ClC(Cl)c1nc(-c2cccs2)n2nc(-c3ccccc3)cc2n1	224 nM	688 nM
COc1ccc(S(=O)(=O)N(C(C)=O)c2ccccc2/C=C/c2cc[n+]([O-])cc2)cc1	461 nM	> 10000 nM
CCN(CC)CCCCNc1c2ccc(Cl)cc2nc2ccc(OC)cc12	317 nM	1830 nM
CCn1c(-c2nonc2N)nc2c(N3CCCC3)nccc21	8920 nM	> 25000 nM
O=C1c2cc3c(cc2-c2c1c1ccc(Cl)cc1c(=O)n2CCCn1ccnc1)OCO3	< 10 nM	14.4 nM
O=P(O)(O)OCC1OC(n2cnc3c(NCc4ccccc4)ncnc32)C(O)C1O (stereo unspecified)	925 nM	4120 nM
C=C(C)[C@@H]1CC[C@]2(C(=O)NS(=O)(=O)c3ccccc3)CC[C@]3(C)[C@H](CC[C@@H]4[C@@]5(C)CC[C@H](OC(=O)NS(=O)(=O)c6ccccc6)C(C)(C)[C@@H]5CC[C@]43C)[C@@H]12	2220 nM	10200 nM
CC(C)(C)OC(=O)Nc1ccc2c(c1)C(NC(=O)Nc1cccc(C#N)c1)CC(C)(C)O2 (stereo unspecified)	381 nM	9900 nM
CCCCn1c(=O)c(/C=C/C(=O)/C=C/c2cc3ccccc3n(CCCC)c2=O)cc2ccccc21	1640 nM	3760 nM
COc1cc(C(=O)c2cocc2C(=O)c2ccc3c(c2)OCO3)cc(OC)c1OC	4050 nM	> 100000 nM
CNC(=O)c1cncc(/C=C/c2ccccc2Cl)c1	9170 nM	> 25000 nM
COC(=O)N[C@H]1CCc2c(Cl)c(OC)c(OC)c(OC)c2-c2ccc(SC)c(=O)cc21	< 10 nM	23100 nM
COC(=O)[C@H](Cc1cn(C)cn1)NC(=O)[C@H](Cc1ccccc1)NC(=O)Nc1cc(C(F)(F)F)cc(C(F)(F)F)c1	4400 nM and 4230 nM	17700 nM
COc1ccc2[nH]c(C(=O)OCc3ccc4c(Cl)cc(Cl)c(O)c4n3)cc2c1	1360 nM	2770 nM
CS(=O)(=O)N(c1cc(-c2ccc3ncnc(Nc4ccc(F)c(Cl)c4)c3c2)cnc1Cl)S(C)(=O)=O	467 nM	2550 nM
C=C1CCC2C3(C)COC(c4ccccc4Cl)OC3CCC2(C)C1/C=C/C1=CCOC1=O (stereo unspecified)	4960 nM	> 100000 nM
Nc1cccc2c1C(=O)c1cccc(NC(=O)c3ccccc3)c1C2=O	577 nM	7030 nM
CNC(=O)c1ccccc1Nc1nc(Nc2ccc3c(c2OC)CCC[C@H](N2CCN(CCO)CC2)C3)ncc1Cl	1210 nM and 696 nM	3330 nM and 2500 nM
C[N+](C)=c1ccc2nc3c(cc(NCCCNc4cc5oc6cc(=[N+](C)C)ccc-6nc5c5ccccc45)c4ccccc43)oc-2c1	193 nM	1350 nM
c1ccc2c(c1)cc1ccc3cccc4ccc2c1c34	157 nM	312 nM
